Data as given in ChEMBL document CHEMBL1201862, “PubChem BioAssay data set” (2004).
Activity calls are given as the source filed them.

Columns and labels:
[1] = target: Cytochrome P450 2C19 (Homo sapiens, UniProt P33261); assay: Cytochrome panel assay with activity outcomes. Panel member name: p450-cyp2c19 Compounds with AC50 equal or less than 10 uM are considered active; type: functional
[2] = target: Cytochrome P450 2D6 (Homo sapiens, UniProt P10635);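 note: CYP2D6 member of a cytochrome P450 panel assay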
Chain of Cytochrome P450 2D6 (P10635 whole entry): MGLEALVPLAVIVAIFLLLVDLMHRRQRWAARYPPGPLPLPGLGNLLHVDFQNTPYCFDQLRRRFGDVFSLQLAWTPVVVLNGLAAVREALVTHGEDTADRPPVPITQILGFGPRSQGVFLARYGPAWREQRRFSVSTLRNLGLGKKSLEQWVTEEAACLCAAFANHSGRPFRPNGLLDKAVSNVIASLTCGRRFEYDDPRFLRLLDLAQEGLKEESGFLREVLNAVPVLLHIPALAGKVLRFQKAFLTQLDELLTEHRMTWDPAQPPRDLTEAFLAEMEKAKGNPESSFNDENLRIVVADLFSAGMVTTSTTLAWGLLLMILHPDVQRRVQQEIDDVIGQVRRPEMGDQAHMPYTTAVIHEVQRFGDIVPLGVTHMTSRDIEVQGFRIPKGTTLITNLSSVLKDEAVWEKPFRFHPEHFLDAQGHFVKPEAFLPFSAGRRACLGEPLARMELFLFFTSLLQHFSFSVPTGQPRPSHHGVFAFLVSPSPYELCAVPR

[3] = tested on: BJ; assay: cells; type: functional, cell-based; details: Homo sapiens
[4] = target: T1, Serine/threonine-protein phosphatase (Candida dubliniensis (strain CD36 / CBS 7987 / NCPF 3949 / NRRLY-17841) (Yeast), UniProt B9W6M3); assay: calcineurin pathway inhibitors in yeast reporter, dose response, S. cerevisiae, CDRE-lacZ, luminescence, secondary (AID 2388); type: functional, cell-based;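 note: yeast reporter cells carrying a calcineurin-responsive lacZ construct stimulated with calcium chloride; luminescent beta-galactosidase reporter signal in whole cells rather than isolated phosphatase activity; potency for inhibition where a drop in reporter signal means calcineurin blockade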
T1 sequence (B9W6M3 whole entry): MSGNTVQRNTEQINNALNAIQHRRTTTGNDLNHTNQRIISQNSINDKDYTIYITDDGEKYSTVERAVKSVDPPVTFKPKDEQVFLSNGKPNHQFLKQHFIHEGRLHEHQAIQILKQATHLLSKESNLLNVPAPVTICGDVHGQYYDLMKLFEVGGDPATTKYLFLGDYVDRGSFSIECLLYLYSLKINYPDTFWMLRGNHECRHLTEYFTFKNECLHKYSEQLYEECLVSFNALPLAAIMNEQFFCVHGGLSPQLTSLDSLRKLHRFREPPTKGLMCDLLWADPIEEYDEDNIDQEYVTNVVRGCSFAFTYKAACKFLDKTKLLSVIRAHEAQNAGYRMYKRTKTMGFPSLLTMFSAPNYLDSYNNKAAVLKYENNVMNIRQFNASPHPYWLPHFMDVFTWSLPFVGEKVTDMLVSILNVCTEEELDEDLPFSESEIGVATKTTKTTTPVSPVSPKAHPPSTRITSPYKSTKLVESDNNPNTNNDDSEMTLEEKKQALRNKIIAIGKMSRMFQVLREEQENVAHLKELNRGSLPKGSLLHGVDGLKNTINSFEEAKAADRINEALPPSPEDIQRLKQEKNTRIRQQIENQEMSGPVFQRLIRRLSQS

[5] = C. albicans growth with fluconazole, confirmation, fluorescence, retest (AID 2467); type: functional, cell-based
[6] = tested on: BJ; assay: cytotoxicity toward Ras-transformed BJeLR fibroblasts, dose response, cell-based, alamar blue fluorescence, cherrypicked samples (AID 2631); type: functional; details: Homo sapiens;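 note: confirmatory dose-response assay in RAS-dependent BJ fibroblasts engineered with TERT, LT and ST, with cytotoxicity read by fluorescence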
[7] = target: Nonstructural protein 1 (Influenza A virus, UniProt Q194T2); type: functional, Influenza A virus (A/California/07/2009(H1N1))
Chain of Nonstructural protein 1 (Q194T2 whole entry): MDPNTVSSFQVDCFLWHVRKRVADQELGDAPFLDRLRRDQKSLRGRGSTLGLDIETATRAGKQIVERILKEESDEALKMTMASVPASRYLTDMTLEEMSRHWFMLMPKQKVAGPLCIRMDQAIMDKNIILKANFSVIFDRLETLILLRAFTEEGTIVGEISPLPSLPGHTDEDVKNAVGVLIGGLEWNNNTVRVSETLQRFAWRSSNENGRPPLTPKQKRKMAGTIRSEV

[8] = NIH-3T3 fibroblast cytotoxicity, dose response, cytotoxicity control, cell-based, fluorescence, Alamar Blue, secondary assay (AID 2327); type: functional;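 note: NIH-3T3 mouse fibroblasts cultured with fluconazole at 8 µg/mL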
[9] = target: Heat shock protein HSP 90-alpha (Homo sapiens, UniProt P07900); type: functional, organism-based
[10] = target: ATP-dependent molecular chaperone HSP82 (Candida albicans (strain WO-1) (Yeast), UniProt C4YTQ8); assay: loss of DOC-induced GRE-beta-galactosidase reporter signal, dose response, Hsp90 inhibitor project, S. cerevisiae, luminescence (AID 2400); type: functional, cell-based;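 note: beta-galactosidase luminescence from glucocorticoid response element reporter as proxy for Hsp90 function; inhibitor potency where signal loss means Hsp90 inhibition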
Chain of ATP-dependent molecular chaperone HSP82 (C4YTQ8 whole entry): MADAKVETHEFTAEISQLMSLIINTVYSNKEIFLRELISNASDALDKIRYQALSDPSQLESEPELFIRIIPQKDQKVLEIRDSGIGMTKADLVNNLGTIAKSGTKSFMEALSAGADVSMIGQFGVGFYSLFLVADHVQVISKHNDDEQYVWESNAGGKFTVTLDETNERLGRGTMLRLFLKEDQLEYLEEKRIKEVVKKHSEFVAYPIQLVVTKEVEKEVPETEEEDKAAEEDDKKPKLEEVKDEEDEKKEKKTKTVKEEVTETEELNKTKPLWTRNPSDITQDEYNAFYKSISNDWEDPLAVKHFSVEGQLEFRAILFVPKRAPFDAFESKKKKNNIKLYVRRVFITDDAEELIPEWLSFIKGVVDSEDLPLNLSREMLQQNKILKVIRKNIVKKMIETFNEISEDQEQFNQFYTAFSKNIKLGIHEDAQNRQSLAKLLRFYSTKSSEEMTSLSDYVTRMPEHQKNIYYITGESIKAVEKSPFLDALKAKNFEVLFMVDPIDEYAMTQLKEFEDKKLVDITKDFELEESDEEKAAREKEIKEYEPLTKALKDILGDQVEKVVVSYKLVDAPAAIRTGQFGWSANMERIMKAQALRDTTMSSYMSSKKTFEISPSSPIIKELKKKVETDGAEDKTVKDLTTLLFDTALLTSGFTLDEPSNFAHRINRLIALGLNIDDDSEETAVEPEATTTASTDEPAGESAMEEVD

[11] = cytotoxicity toward DRD oncogenic fibroblasts, dose response, cell-based, non-viral oncogenic, luminescence (AID 1934); type: functional; details: Homo sapiens
[12] = tested on: BJ; assay: cytotoxicity toward BJ-TERT-LT-ST fibroblasts, dose response, cell-based, RAS-independent, luminescence (AID 1935); type: functional; details: Homo sapiens;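 note: BJ fibroblasts immortalized with TERT plus LT and ST oncogenes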
[13] = tested on: BJ; assay: cytotoxicity toward BJ-TERT fibroblasts, dose response, cell-based, RAS-independent, luminescence (AID 1933); type: functional; details: Homo sapiens
[14] = cytotoxicity in HEK-293T cells, dose response, cytotoxicity control for BCR NF-kB inhibitor project, luminescence, B-cell screen hits (AID 489021); type: functional, cell-based;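 note: HEK-293T cells carrying an NF-kB luciferase reporter; cells exposed to compound for about 14 hours before viability readout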
[15] = Luminescence Cell-Based Dose Confirmation HTS to Identify Inhibitors of Platelet Dense Granule Release. [Related pubchem assays: 1663 (Primary HTS), 1678 (Summary of Project)]; type: functional
[16] = target: T2, Cytochrome P450 1A2 (Homo sapiens, UniProt P05177)
T2 sequence (P05177 whole entry): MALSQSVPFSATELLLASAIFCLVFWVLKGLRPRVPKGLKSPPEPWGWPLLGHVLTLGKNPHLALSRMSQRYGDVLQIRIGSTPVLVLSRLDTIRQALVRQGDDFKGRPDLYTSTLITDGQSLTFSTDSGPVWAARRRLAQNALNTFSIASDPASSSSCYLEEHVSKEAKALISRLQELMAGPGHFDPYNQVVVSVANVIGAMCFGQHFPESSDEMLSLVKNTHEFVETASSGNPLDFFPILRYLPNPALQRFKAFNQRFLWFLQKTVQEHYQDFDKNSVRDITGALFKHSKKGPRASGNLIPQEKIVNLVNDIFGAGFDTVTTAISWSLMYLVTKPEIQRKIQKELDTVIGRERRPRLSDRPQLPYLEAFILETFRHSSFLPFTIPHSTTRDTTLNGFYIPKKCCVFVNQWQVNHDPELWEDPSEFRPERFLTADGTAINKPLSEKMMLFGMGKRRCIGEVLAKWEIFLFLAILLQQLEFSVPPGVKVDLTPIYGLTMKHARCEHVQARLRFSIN

[17] = target: Luciferin 4-monooxygenase (Photinus pyralis, UniProt P08659); assay: firefly luciferase enzyme inhibitors, dose response, biochemical, luminescence (AID 1891)
Chain of Luciferin 4-monooxygenase (P08659 whole entry): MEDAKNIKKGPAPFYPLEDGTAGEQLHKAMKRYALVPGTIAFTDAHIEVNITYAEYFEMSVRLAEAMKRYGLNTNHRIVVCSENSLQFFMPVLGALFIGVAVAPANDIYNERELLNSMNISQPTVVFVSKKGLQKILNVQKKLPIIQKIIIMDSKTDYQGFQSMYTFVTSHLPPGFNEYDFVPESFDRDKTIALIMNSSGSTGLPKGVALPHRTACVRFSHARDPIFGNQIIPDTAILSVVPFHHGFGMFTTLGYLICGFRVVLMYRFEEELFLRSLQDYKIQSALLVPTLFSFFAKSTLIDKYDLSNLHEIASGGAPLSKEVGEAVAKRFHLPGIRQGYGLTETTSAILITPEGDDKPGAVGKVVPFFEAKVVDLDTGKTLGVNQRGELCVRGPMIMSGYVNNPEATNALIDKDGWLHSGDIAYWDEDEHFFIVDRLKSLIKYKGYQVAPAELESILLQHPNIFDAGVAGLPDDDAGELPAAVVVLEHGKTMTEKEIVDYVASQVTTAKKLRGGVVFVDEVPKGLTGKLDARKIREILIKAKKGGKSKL

[18] = Luminescence Cell-Based Dose Response HTS to Identify Inhibitors of 5'UTR Stem-Loop Driven Prion Protein mRNA Translation in H4 Neuroglioblastoma Cells. [Related pubchem assays: 1827 (Project Summary), 1813 (Primary HTS)]; type: functional
[19] = inhibitors of firefly luciferase expression or activity, dose response, H4 neuroglioma cells, luminescence (AID 1990); type: functional, cell-based
[20] = inhibitors of SNCA 5'UTR-driven reporter translation, confirmation, H4 neuroglioma cells, luminescence (AID 1988); type: functional, cell-based
[21] = tested on: Streptococcus; assay: Group A Streptococcus viability loss, dose response, counter-screen for streptokinase expression inhibitor project, luminescence, BacTiterGlo (AID 1915); type: functional, organism-based;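 note: potency for reduction of bacterial viability or growth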
[22] = target: Prothrombin (Bos taurus, UniProt P00735); assay: thrombin inhibition, dose response, biochemical, fluorescence polarization, uHTS hits (AID 602369); type: functional
[23] = tested on: Streptococcus sp. 'group A'; assay: growth inhibition of control SK(-) GAS strain, dose response, counter-screen for streptokinase expression inhibitor project, luminescence, kanamycin, BacTiterGlo, confirmation (AID 1900); type: functional, organism-based
[24] = target: 72 kDa type IV collagenase (Homo sapiens, UniProt P08253); assay: Dose Response validation of uHTS RPN11 inhibitor hits using a MMP-2 Fluorescence assay.; type: functional
Chain of 72 kDa type IV collagenase (P08253 whole entry): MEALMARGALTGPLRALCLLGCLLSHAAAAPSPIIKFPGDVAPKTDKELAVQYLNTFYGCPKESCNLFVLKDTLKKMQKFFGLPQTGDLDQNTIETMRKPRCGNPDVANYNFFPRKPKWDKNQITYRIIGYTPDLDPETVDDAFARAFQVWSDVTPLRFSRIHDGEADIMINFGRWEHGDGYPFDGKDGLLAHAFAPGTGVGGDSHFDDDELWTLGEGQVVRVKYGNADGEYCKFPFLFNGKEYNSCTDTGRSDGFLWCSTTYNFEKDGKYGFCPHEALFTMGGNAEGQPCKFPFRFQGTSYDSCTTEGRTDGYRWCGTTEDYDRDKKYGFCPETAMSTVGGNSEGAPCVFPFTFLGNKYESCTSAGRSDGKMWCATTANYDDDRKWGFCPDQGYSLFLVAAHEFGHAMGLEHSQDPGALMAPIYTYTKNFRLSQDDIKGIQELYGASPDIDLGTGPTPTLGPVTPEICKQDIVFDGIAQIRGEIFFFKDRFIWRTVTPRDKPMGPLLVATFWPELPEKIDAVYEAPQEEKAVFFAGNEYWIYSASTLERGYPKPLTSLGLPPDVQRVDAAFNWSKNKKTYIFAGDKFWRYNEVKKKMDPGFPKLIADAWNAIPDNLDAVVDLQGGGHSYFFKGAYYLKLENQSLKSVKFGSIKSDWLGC

[25] = target: 26S proteasome non-ATPase regulatory subunit 14 (Homo sapiens, UniProt O00487); assay: inhibition of proteasome subunit RPN11 – biochemical, fluorescence polarization, uHTS hits, confirmation (AID 602368); type: functional
Chain of 26S proteasome non-ATPase regulatory subunit 14 (O00487 whole entry): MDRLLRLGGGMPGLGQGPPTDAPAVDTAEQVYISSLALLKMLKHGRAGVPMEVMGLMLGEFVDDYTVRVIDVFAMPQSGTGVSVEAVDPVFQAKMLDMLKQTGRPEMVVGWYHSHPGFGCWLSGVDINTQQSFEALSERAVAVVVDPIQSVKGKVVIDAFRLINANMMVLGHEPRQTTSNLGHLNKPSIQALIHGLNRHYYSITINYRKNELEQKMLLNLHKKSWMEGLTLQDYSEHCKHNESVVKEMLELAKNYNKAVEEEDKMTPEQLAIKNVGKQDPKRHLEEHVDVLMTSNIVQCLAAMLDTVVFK

[26] = Luminescence Cell-Based Dose Retest to Confirm Inhibitors of Cancer Stem Cells. [Related pubchem assays (depositor defined):AID2717, AID2721]; type: functional, Homo sapiens; details: Homo sapiens

Chain of Cytochrome P450 2C19 (P33261 whole entry): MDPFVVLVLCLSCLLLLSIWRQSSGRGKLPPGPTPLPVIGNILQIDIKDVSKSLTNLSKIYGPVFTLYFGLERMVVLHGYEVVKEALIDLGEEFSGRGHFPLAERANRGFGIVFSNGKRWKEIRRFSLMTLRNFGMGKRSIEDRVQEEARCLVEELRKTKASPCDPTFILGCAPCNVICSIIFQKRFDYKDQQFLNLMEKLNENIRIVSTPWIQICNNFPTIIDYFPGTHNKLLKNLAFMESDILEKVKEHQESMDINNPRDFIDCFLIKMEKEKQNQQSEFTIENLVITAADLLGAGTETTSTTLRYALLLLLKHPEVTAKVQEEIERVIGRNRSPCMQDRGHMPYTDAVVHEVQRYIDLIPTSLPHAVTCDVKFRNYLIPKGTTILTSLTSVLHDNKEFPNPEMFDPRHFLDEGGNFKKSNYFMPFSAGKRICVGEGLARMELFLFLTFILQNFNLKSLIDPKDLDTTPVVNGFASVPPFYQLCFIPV

## NC1(C(=O)O)CCCCC1
[1]
  AC50: inconclusive
[2]
  AC50: inconclusive

## O=Cc1ccc(O)c2ncccc12
[3]
  EC50: 33.7 µM (active)
[4]
  EC50: 3.93 µM (active)
[5]
  EC50: 0.333 µM (active)
[6]
  EC50: 0.284 µM (active)
[7]
  IC50: 1.71 µM (active)
[8]
  EC50: 16.1 µM (active)
[9]
  AC50: 0.552 µM (active)
[10]
  EC50: 11.2 µM (active)
[11]
  EC50: 16.6 µM (active)
[12]
  EC50: 21.1 µM (inconclusive)
[13]
  EC50: 4.43 µM (active)

## O=S(=O)(c1cnc(Cl)c(Cl)c1)N1CCCc2ccccc21
[14]
  IC50: > 80 µM (inactive)

## COC(=O)[C@@]12OC[C@]34[C@H]([C@@H](O)[C@@H]1O)[C@@]1(C)C(=O)C(O[C@@H]5OC(CO)[C@@H](O)[C@@H](O)[C@@H]5O)=C[C@@H](C)[C@@H]1C[C@H]3OC(=O)[C@H](OC(=O)/C=C(\C)C(C)(C)OC(C)=O)[C@@H]24 (stereo not given in full)
[14]
  IC50: > 80 µM (inactive)

## COc1ccc(C(N)=O)cc1NC(=O)c1cccc(F)c1
[15]
  EC50: > 112 µM (not active)
[16]
  AC50: 5.01 µM (inconclusive)
[17]
  EC50: > 112 µM (not active)
[2]
  AC50: inconclusive

## CCNc1nc(C)c2cc(Br)c(=O)n(CC)c2n1
[14]
  IC50: > 80 µM (inactive)
[18]
  EC50: 7.96 µM (active)
[19]
  EC50: 15.9 µM (active)
[20]
  EC50: 11.5 µM (active)

## O=C(CSc1nc(O)c2c(C(F)(F)F)cc(-c3cccs3)nc2n1)Nc1ccc(F)c(F)c1
[21]
  EC50: 2.58 µM (active)
[22]
  IC50: 79.4 µM (active)
[23]
  EC50: 1.12 µM (active)
[24]
  IC50: > 100 µM (inactive)
[25]
  IC50: 42.7 µM (active)
[26]
  AC50: 1.27 µM (active)

## CCOC(=O)C(/C=N/c1cc(C)ccc1C)=C(\O)OCC
[14]
  IC50: > 80 µM (inactive)
